# Data: ChEMBL document CHEMBL6127051, “Hydrazinecarboxamides: Comprehensive review of their anticancer, anticonvulsive, anti-inflammatory, enzyme inhibition, antioxidant and other activities” (Eur J Med Chem, 2024)
# Assays:
# [1] = system: A549; assay: Antiproliferative activity against human A549 cells assessed as reduction in cell viability measured for 24 hrs by MTT assay; conditions: A549, 24 h
# [2] = target: T1, Retinoic acid receptor RXR-alpha (Homo sapiens, UniProt P19793); assay: Antagonist activity at RXRalpha (unknown origin) by Alpha Screen assay
# T1 sequence (P19793 whole entry): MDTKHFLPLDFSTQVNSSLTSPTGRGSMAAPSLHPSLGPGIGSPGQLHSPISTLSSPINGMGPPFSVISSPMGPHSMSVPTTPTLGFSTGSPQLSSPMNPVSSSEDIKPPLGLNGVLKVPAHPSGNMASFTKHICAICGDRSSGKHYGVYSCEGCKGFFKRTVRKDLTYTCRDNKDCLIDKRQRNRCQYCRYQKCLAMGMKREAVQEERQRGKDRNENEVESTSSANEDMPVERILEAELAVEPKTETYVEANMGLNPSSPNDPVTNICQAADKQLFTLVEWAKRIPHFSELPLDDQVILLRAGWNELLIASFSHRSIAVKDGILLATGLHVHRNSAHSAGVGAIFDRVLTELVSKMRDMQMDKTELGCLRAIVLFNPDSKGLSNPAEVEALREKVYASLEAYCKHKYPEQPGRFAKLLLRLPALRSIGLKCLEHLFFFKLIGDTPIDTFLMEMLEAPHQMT
# [3] = system: HepG2; assay: Antiproliferative activity against human HepG2 cells assessed as reduction in cell viability measured for 24 hrs by MTT assay; conditions: HepG2, 24 h
# [4] = system: Mus musculus; assay: Anticonvulsant activity in ip dosed MES induced Kunming mouse seizure model; assay type: functional
# [5] = Antioxidant activity assessed as DPPH radical scavenging activity at 10 ug/ml; assay type: functional; conditions: dose 10.0 µg/ml
# [6] = system: A549; assay: Antiproliferative activity against human A549 cells; assay type: functional, cell-based
# [7] = system: MCF7; assay: Antiproliferative activity against human MCF7 cells assessed as reduction in cell viability incubated for 72 hrs by MTT assay; assay type: functional, cell-based; conditions: MCF7, 72 h
# [8] = system: A549; assay: Antiproliferative activity against human A549 cells assessed as reduction in cell viability by MTT assay; assay type: functional, cell-based
# [9] = system: MCF7; assay: Cytotoxicity against human MCF7 cells assessed as reduction in cell growth; assay type: functional, cell-based
# [10] = system: PC-3; assay: Anticancer activity against human PC-3 cells assessed as inhibition of cell growth at 3 uM incubated for 48 hrs by MTT assay relative to control; assay type: functional; design: scale not given: the % may be the effect or the level left
# [11] = system: A549; assay: Anticancer activity against human A549 cells assessed as inhibition of cell growth at 3 uM incubated for 48 hrs by MTT assay relative to control; assay type: functional; design: scale not given: the % may be the effect or the level left
# [12] = system: Mus musculus; assay: Anticonvulsant activity in ip dosed scPTZ induced Kunming mouse seizure model; assay type: functional
# [13] = system: MCF7; assay: Antiproliferative activity against human MCF7 cells assessed as reduction in cell viability measured for 72 hrs by MTT assay; assay type: functional, cell-based; conditions: MCF7, 72 h
# [14] = system: Mus musculus; assay: Anticonvulsant activity in po dosed scPTZ induced mouse model measured after 4 hrs; assay type: functional
# [15] = system: NCI-H460; assay: Antiproliferative activity against human NCI-H460 cells by MTT assay; assay type: functional, cell-based
# [16] = system: MCF7; assay: Antiproliferative activity against human MCF7 cells by MTT assay; assay type: functional, cell-based
# [17] = system: MCF7; assay: Anticancer activity against human MCF7 cells assessed as reduction in cell growth measured after 3 days by MTT assay; assay type: functional, cell-based; conditions: MCF7, 72 h
# [18] = Inhibition of Escherichia coli beta-glucuronidase
# [19] = system: NCI-H23; assay: Antiproliferative activity against human NCI-H23 cells assessed as reduction in cell viability incubated for 72 hrs by MTT assay; assay type: functional, cell-based; conditions: NCI-H23, 72 h
# [20] = system: WI-38; assay: Antiproliferative activity against human WI-38 cells assessed as reduction in cell viability; assay type: functional, cell-based
# [21] = system: A549; assay: Antiproliferative activity against human A549 cells assessed as reduction in cell viability incubated for 72 hrs by MTT assay; assay type: functional, cell-based; conditions: A549, 72 h
# [22] = target: Cholinesterase (Equus caballus, UniProt P81908); assay: Inhibition of equine serum BChE using butyrylthiocholine iodide as substrate measured after 15 mins by Ellman's method
# Chain of Cholinesterase (P81908 whole entry): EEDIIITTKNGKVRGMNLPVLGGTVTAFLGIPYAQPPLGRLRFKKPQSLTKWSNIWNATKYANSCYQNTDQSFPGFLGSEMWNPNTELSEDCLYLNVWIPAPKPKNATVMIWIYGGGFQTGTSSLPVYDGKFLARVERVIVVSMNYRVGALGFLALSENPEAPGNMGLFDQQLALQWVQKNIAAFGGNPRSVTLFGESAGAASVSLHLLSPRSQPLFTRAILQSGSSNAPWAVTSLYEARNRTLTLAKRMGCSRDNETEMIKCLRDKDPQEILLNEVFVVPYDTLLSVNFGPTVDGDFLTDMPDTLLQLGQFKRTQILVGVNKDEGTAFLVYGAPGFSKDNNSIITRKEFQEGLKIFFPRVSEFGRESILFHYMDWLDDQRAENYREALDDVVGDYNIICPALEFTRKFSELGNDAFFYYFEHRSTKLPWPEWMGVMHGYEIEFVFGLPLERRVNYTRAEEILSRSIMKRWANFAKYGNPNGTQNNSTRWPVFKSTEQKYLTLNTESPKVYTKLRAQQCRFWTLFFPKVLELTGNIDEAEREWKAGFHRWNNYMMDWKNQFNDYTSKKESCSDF
smiles,measurement,setting,value
CC(C)(C)NC(=O)NNC(=O)c1ccc(Nc2nccc(-c3ccncc3)n2)cc1,IC50,[1],8390 nM
same,EC50,[2],1050 nM
same,IC50,[3],2170 nM
Cc1ccc(N(C(=O)CNN2C(=O)C(=O)N(C(C)C)C2=O)C2(C(N)=O)CCCCC2)cc1,ED50,[4],44.5 mg/kg
COc1cc(/C=C2\N=C(C)N(NC(=O)N3c4ccccc4C=Cc4ccccc43)C2=O)ccc1O,Activity,[5],73.9%
CC1=N/C(=C\c2ccc(Cl)cc2)C(=O)N1NC(=O)N1c2ccccc2C=Cc2ccccc21,Activity,[5],73.9%
COc1cc(NC(C)CCCNC(=O)NNC(=O)NC2CCCC2)c2ncccc2c1 (centres undefined),IC50,[6],1500 nM
same,IC50,[7],1000 nM
same,IC50,[8],4000 nM
O=C(NNC(=O)n1nnc2ccccc21)NOC(=O)c1ccccc1,IC50,[9],79000 nM
COc1ccc(C(C)(C)C)cc1NC(=O)NNC1=NS(=O)(=O)c2ccccc2N1c1ccccc1,Activity,[10],>=71%
same,Activity,[11],99%
COc1cc(/C=C2\N=C(C)N(NC(=O)N3c4ccccc4C=Cc4ccccc43)C2=O)cc(OC)c1OC,Activity,[5],73.9%
O=C(NNC(=O)n1nnc2ccccc21)NC(=O)c1ccccc1,IC50,[9],79000 nM
CCOC(=O)C1(NC(=O)NNc2ccc(F)cc2)CC1(C)C (centres undefined),ED50,[12],9.2 mg/kg
O=C(NNC(=O)c1cc2ccccc2[nH]1)NC1CCCCC1,IC50,[13],1200 nM
CNC(=O)c1cc(Oc2ccc(NC(=O)Nc3ccc(Cl)c(C(F)(F)F)c3)cc2)ccn1 [SORAFENIB],IC50,[3],16900 nM
CC1(C)CC12NC(=O)N(Nc1ccc([N+](=O)[O-])cc1[N+](=O)[O-])C2=O (centres undefined),ED50,[14],126 mg/kg
COc1cc(NC(C)CCCNC(=O)NNC(=O)NC2CCCCC2)c2ncccc2c1 (centres undefined),IC50,[6],1500 nM
same,IC50,[7],1000 nM
same,IC50,[8],4000 nM
COc1cc(NC(C)CCCNC(=O)NNC(=O)NCCc2ccccc2)c2ncccc2c1 (centres undefined),IC50,[6],1500 nM
same,IC50,[7],1000 nM
same,IC50,[8],4000 nM
COc1cc(C(=O)NN2C(=O)C(=O)N(C(C)C)C2=O)cc2c1OCCO2,ED50,[4],7.6 mg/kg
Cc1nc(-c2cccnc2)ccc1C(=O)NNC(=O)Nc1c(Cl)cc(Cl)cc1Cl,IC50,[15],8890 nM
same,IC50,[16],8890 nM
O=C(NNC(=S)NCc1ccccc1)c1ccc(Nc2nccc(-c3ccccn3)n2)cc1,IC50,[1],8390 nM
same,EC50,[2],1050 nM
same,IC50,[3],2170 nM
COc1cc(NC(C)CCCNC(=O)NNC(=O)/C=C/c2cc(C(F)(F)F)cc(C(F)(F)F)c2)c2ncccc2c1 (centres undefined),IC50,[17],30 nM
CC1=N/C(=C\c2ccc([N+](=O)[O-])cc2)C(=O)N1NC(=O)N1c2ccccc2C=Cc2ccccc21,Activity,[5],73.9%
O=C(NNC(=O)n1nnc2ccccc21)NC1CCCCC1,IC50,[9],79000 nM
CC1(C)CC12NC(=O)N(Nc1ccc(F)cc1)C2=O (centres undefined),ED50,[14],61.8 mg/kg
COc1ccc(/C=C2\N=C(C)N(NC(=O)N3c4ccccc4C=Cc4ccccc43)C2=O)c(OC)c1,Activity,[5],73.9%
COc1ccc(CC(=O)NNC(=O)Nc2ccccc2OC)cc1,IC50,[18],16800 nM
COc1cccc(NC(=O)NNC(=O)c2oc3ccccc3c2CN2CCOCC2)c1,IC50,[19],1490 nM
same,IC50,[20],12900 nM
same,IC50,[21],1500 nM
COc1cc(NC(C)CCCNC(=O)NNC(=O)/C=C/c2ccccc2)c2ncccc2c1 (centres undefined),IC50,[17],30 nM
O=C(NCCc1ccccc1)NNC(=O)c1ccc(Nc2nccc(-c3ccncc3)n2)cc1,IC50,[1],8390 nM
same,EC50,[2],1050 nM
same,IC50,[3],2170 nM
COc1cc(NC(C)CCCNC(=O)NNC(=O)NC(c2ccccc2)c2ccccc2)c2ncccc2c1 (centres undefined),IC50,[6],1500 nM
same,IC50,[7],1000 nM
same,IC50,[8],4000 nM
COc1cc(NC(C)CCCNC(=O)NNC(=O)/C=C/c2ccccc2F)c2ncccc2c1 (centres undefined),IC50,[17],30 nM
COc1cc(NC(C)CCCNC(=O)NNC(=O)/C=C/c2cc(OC)c(OC)c(OC)c2)c2ncccc2c1 (centres undefined),IC50,[17],30 nM
CCCCCCCCCCCCCCCNC(=O)NNC(=O)c1ccc(C(F)(F)F)cc1,IC50,[22],58000 nM
